Reference: ChEMBL document CHEMBL4311960, “Two optimized antimicrobial peptides with therapeutic potential for clinical antibiotic-resistant Staphylococcus aureus” (Eur J Med Chem, 2019)
In brackets after ≈: the same amount, converted by molar mass.

Tests used:
Candida albicans = experiment: Antifungal activity against Candida albicans ATCC 5314 assessed as reduction in fungal growth incubated for 24 hrs by serial dilution method; format: functional; conditions: ATCC 5314, 24 h
Staphylococcus aureus [1] = experiment: Antibacterial activity against methicillin-resistant Staphylococcus aureus ATCC 19494 assessed as reduction in bacterial growth incubated for 24 hrs by serial dilution method; format: functional; conditions: ATCC 19494, 24 h
Staphylococcus aureus [2] = experiment: Antibacterial activity against Staphylococcus aureus ATCC 8325.4 assessed as reduction in bacterial growth incubated for 24 hrs by serial dilution method; format: functional; conditions: ATCC 8325.4, 24 h
Staphylococcus aureus [3] = experiment: Antibacterial activity against Staphylococcus aureus ATCC 25923 assessed as reduction in bacterial growth incubated for 24 hrs by serial dilution method; format: functional; conditions: ATCC 25923, 24 h, read-out: MIC
Staphylococcus aureus [4] = experiment: Antibacterial activity against Staphylococcus aureus ATCC 29213 assessed as reduction in bacterial growth incubated for 24 hrs by serial dilution method; format: functional; conditions: ATCC 29213, 24 h
Staphylococcus aureus [5] = experiment: Antibacterial activity against Staphylococcus aureus ATCC 6538 assessed as reduction in bacterial growth incubated for 24 hrs by serial dilution method; format: functional; conditions: ATCC 6538, 24 h
Staphylococcus aureus [6] = experiment: Antibacterial activity against methicillin-resistant Staphylococcus aureus ATCC 18466 assessed as reduction in bacterial growth incubated for 24 hrs by serial dilution method; format: functional; conditions: ATCC 18466, 24 h
Staphylococcus aureus [7] = experiment: Antibacterial activity against methicillin-resistant Staphylococcus aureus ATCC 18475 assessed as reduction in bacterial growth incubated for 24 hrs by serial dilution method; format: functional; conditions: ATCC 18475, 24 h
Staphylococcus aureus [8] = experiment: Antibacterial activity against methicillin-resistant Staphylococcus aureus ATCC 18567 assessed as reduction in bacterial growth incubated for 24 hrs by serial dilution method; format: functional; conditions: ATCC 18567, 24 h
Staphylococcus aureus [9] = experiment: Antibacterial activity against methicillin-resistant Staphylococcus aureus ATCC 18858 assessed as reduction in bacterial growth incubated for 24 hrs by serial dilution method; format: functional; conditions: ATCC 18858, 24 h
Staphylococcus aureus [10] = experiment: Antibacterial activity against methicillin-resistant Staphylococcus aureus ATCC 18878 assessed as reduction in bacterial growth incubated for 24 hrs by serial dilution method; format: functional; conditions: ATCC 18878, 24 h
Staphylococcus aureus [11] = experiment: Antibacterial activity against methicillin-resistant Staphylococcus aureus ATCC 18908 assessed as reduction in bacterial growth incubated for 24 hrs by serial dilution method; format: functional; conditions: ATCC 18908, 24 h
Staphylococcus aureus [12] = experiment: Antibacterial activity against methicillin-resistant Staphylococcus aureus ATCC 19041 assessed as reduction in bacterial growth incubated for 24 hrs by serial dilution method; format: functional; conditions: ATCC 19041, 24 h
Staphylococcus aureus [13] = experiment: Antibacterial activity against methicillin-resistant Staphylococcus aureus ATCC 19047 assessed as reduction in bacterial growth incubated for 24 hrs by serial dilution method; format: functional; conditions: ATCC 19047, 24 h
Staphylococcus aureus [14] = experiment: Antibacterial activity against methicillin-resistant Staphylococcus aureus ATCC 19498 assessed as reduction in bacterial growth incubated for 24 hrs by serial dilution method; format: functional; conditions: ATCC 19498, 24 h
Staphylococcus aureus [15] = experiment: Antibacterial activity against methicillin-resistant Staphylococcus aureus ATCC 19167 assessed as reduction in bacterial growth incubated for 24 hrs by serial dilution method; format: functional; conditions: ATCC 19167, 24 h
Staphylococcus aureus [16] = experiment: Antibacterial activity against methicillin-resistant Staphylococcus aureus ATCC 19900 assessed as reduction in bacterial growth incubated for 24 hrs by serial dilution method; format: functional; conditions: ATCC 19900, 24 h
Staphylococcus aureus [17] = experiment: Antibacterial activity against methicillin-resistant Staphylococcus aureus ATCC 19916 assessed as reduction in bacterial growth incubated for 24 hrs by serial dilution method; format: functional; conditions: ATCC 19916, 24 h
Staphylococcus aureus [18] = experiment: Antibacterial activity against methicillin-resistant Staphylococcus aureus ATCC 19423 assessed as reduction in bacterial growth incubated for 24 hrs by serial dilution method; format: functional; conditions: ATCC 19423, 24 h
Staphylococcus aureus [19] = experiment: Antibacterial activity against methicillin-resistant Staphylococcus aureus ATCC 19102 assessed as reduction in bacterial growth incubated for 24 hrs by serial dilution method; format: functional; conditions: ATCC 19102, 24 h
Staphylococcus aureus [20] = experiment: Antibacterial activity against methicillin-resistant Staphylococcus aureus ATCC 19952 assessed as reduction in bacterial growth incubated for 24 hrs by serial dilution method; format: functional; conditions: ATCC 19952, 24 h
Staphylococcus aureus [21] = experiment: Antibacterial activity against Staphylococcus aureus ATCC 25923 assessed as reduction in bacterial growth at MIC measured after 15 passages; format: functional
Staphylococcus aureus [22] = experiment: Antibacterial activity against Staphylococcus aureus ATCC 29213 assessed as reduction in bacterial growth at MIC measured after 15 passages; format: functional
Staphylococcus aureus [23] = experiment: Ratio of MIC for resistant Staphylococcus aureus ATCC 25923 for 15 days to MIC for Staphylococcus aureus ATCC 25923 for 24 hrs; format: functional
Staphylococcus aureus [24] = experiment: Ratio of MIC for resistant Staphylococcus aureus ATCC 29213 for 15 days to MIC for Staphylococcus aureus ATCC 29213 for 24 hrs; format: functional
Streptococcus mutans = experiment: Antibacterial activity against Streptococcus mutans UA159 assessed as reduction in bacterial growth incubated for 24 hrs by serial dilution method; format: functional; conditions: UA159, 24 h
Streptococcus sanguinis = experiment: Antibacterial activity against Streptococcus sanguinis ATCC 10556 assessed as reduction in bacterial growth incubated for 24 hrs by serial dilution method; format: functional; conditions: ATCC 10556, 24 h
Erythrocyte = experiment: Hemolytic activity in mouse Erythrocyte assessed as HC10 incubated for 1 hr; format: ADME, cell-based
[25] = Hemolytic activity in mouse Erythrocyte assessed as HC50 incubated for 1 hr; format: ADME, cell-based; conditions: mouse erythrocytes
[26] = Hemolytic activity in mouse Erythrocyte at 640 ug/ml incubated for 1 hr relative to control; format: ADME, cell-based; conditions: mouse erythrocytes, read-out: %max
[27] = Cytotoxicity against human HEK293T cells assessed as cell viability at 5 to 640 ug/ml incubated for 48 hrs by MTT assay relative to control; format: cell-based, HEK-293T; conditions: read-out: Activity
[28] = Cytotoxicity against human HEK293T cells assessed as cell viability at 640 ug/ml incubated for 48 hrs by MTT assay relative to control; format: cell-based, HEK-293T; conditions: read-out: Activity

Molecule: Clc1ccc(COC(Cn2ccnc2)c2ccc(Cl)cc2Cl)cc1 (stereo not drawn) [ECONAZOLE]
- MIC (Candida albicans; read-out: MIC): 4 µg/mL (≈ 10.5 µM)

Molecule: COc1cccc(OC)c1C(=O)N[C@@H]1C(=O)N2[C@@H]1SC(C)(C)[C@@H]2C(=O)O [METHICILLIN]
- MIC (Staphylococcus aureus [1]): > 1200 µg/mL
- MIC (Staphylococcus aureus [2]): 1 µg/mL (≈ 2.63 µM)
- MIC (Staphylococcus aureus [3]): 1 µg/mL (≈ 2.63 µM)
- MIC (Staphylococcus aureus [4]): 1 µg/mL (≈ 2.63 µM)
- MIC (Staphylococcus aureus [5]): 1 µg/mL (≈ 2.63 µM)
- MIC (Staphylococcus aureus [6]; read-out: MIC): > 1200 µg/mL
- MIC (Staphylococcus aureus [7]): > 1200 µg/mL
- MIC (Staphylococcus aureus [8]): > 1200 µg/mL
- MIC (Staphylococcus aureus [9]): > 1200 µg/mL
- MIC (Staphylococcus aureus [10]): > 1200 µg/mL
- MIC (Staphylococcus aureus [11]): > 1200 µg/mL
- MIC (Staphylococcus aureus [12]): > 1200 µg/mL
- MIC (Staphylococcus aureus [13]): > 1200 µg/mL
- MIC (Staphylococcus aureus [14]): > 1200 µg/mL
- MIC (Staphylococcus aureus [15]): > 1200 µg/mL
- MIC (Staphylococcus aureus [16]): > 1200 µg/mL
- MIC (Staphylococcus aureus [17]): > 1200 µg/mL
- MIC (Staphylococcus aureus [18]): > 1200 µg/mL
- MIC (Staphylococcus aureus [19]): > 1200 µg/mL
- MIC (Staphylococcus aureus [20]): > 1200 µg/mL
- fold change (FC) (Staphylococcus aureus [21]): 8 - 16
- fold change (FC) (Staphylococcus aureus [22]): 8 - 16
- Ratio (Staphylococcus aureus [23]): 8 - 16
- Ratio (Staphylococcus aureus [24]): 8 - 16

Molecule: Cc1onc(-c2ccccc2)c1C(=O)N[C@@H]1C(=O)N2[C@@H]1SC(C)(C)[C@@H]2C(=O)O [OXACILLIN]
- MIC (Staphylococcus aureus [1]): > 1200 µg/mL
- MIC (Staphylococcus aureus [2]): 0.5 µg/mL (≈ 1.25 µM)
- MIC (Staphylococcus aureus [3]): 0.5 µg/mL (≈ 1.25 µM)
- MIC (Staphylococcus aureus [4]): 1 µg/mL (≈ 2.49 µM)
- MIC (Staphylococcus aureus [5]): 0.5 µg/mL (≈ 1.25 µM)
- MIC (Staphylococcus aureus [6]; read-out: MIC): > 1200 µg/mL
- MIC (Staphylococcus aureus [7]): > 1200 µg/mL
- MIC (Staphylococcus aureus [8]): > 1200 µg/mL
- MIC (Staphylococcus aureus [9]): > 1200 µg/mL
- MIC (Staphylococcus aureus [10]): > 1200 µg/mL
- MIC (Staphylococcus aureus [11]): > 1200 µg/mL
- MIC (Staphylococcus aureus [12]): > 1200 µg/mL
- MIC (Staphylococcus aureus [13]): > 1200 µg/mL
- MIC (Staphylococcus aureus [14]): > 1200 µg/mL
- MIC (Staphylococcus aureus [15]): > 1200 µg/mL
- MIC (Staphylococcus aureus [16]): > 1200 µg/mL
- MIC (Staphylococcus aureus [17]): > 1200 µg/mL
- MIC (Staphylococcus aureus [18]): > 1200 µg/mL
- MIC (Staphylococcus aureus [19]): > 1200 µg/mL
- MIC (Staphylococcus aureus [20]): > 1200 µg/mL
- fold change (FC) (Staphylococcus aureus [21]): 8
- fold change (FC) (Staphylococcus aureus [22]): 8
- Ratio (Staphylococcus aureus [23]): 8
- Ratio (Staphylococcus aureus [24]): 8

Molecule: CN[C@H](CC(C)C)C(=O)N[C@H]1C(=O)N[C@@H](CC(N)=O)C(=O)N[C@H]2C(=O)N[C@H]3C(=O)N[C@H](C(=O)N[C@H](C(=O)O)c4cc(O)cc(O)c4-c4cc3ccc4O)[C@H](O)c3ccc(c(Cl)c3)Oc3cc2cc(c3O[C@@H]2O[C@H](CO)[C@@H](O)[C@H](O)[C@H]2O[C@H]2C[C@](C)(N)[C@H](O)[C@H](C)O2)Oc2ccc(cc2Cl)[C@H]1O [VANCOMYCIN]
- MIC (Streptococcus mutans; read-out: MIC): 2 µg/mL (≈ 1.38 µM)
- MIC (Streptococcus sanguinis; read-out: MIC): 1 µg/mL (≈ 0.69 µM)

Molecule: H-LYKRYILRKFKFLKKKLKKK-NH2
- MIC (Staphylococcus aureus [3]): < 64 µg/mL
- MIC (Streptococcus mutans): > 64 µg/mL
- MIC (Staphylococcus aureus [6]; read-out: MIC): 64 µg/mL
- MIC (Candida albicans): > 64 µg/mL
- MIC (Streptococcus sanguinis): > 64 µg/mL
- HC10 (Erythrocyte): > 640 µg/mL
- HC50 at 1 h [25]: > 640 µg/mL
- hemolysis at 1 h, 640 ug/ml [26]: 9.34%
- viability at 48 h [27]: 70 to 80%

Molecule: H-SYEIKINRHFKTLKKNLKKK-NH2
- MIC (Staphylococcus aureus [3]): < 64 µg/mL
- MIC (Streptococcus mutans; read-out: MIC): < 64 µg/mL
- MIC (Staphylococcus aureus [6]): > 64 µg/mL
- MIC (Candida albicans): > 64 µg/mL
- MIC (Streptococcus sanguinis): > 64 µg/mL
- HC10 (Erythrocyte): > 640 µg/mL
- HC50 at 1 h [25]: > 640 µg/mL
- hemolysis at 1 h, 640 ug/ml [26]: 6.78%
- viability at 48 h [27]: 70 to 80%

Molecule: H-VWKRWVVRKWKWVKKKVKKK-NH2
- MIC (Staphylococcus aureus [3]): < 64 µg/mL
- MIC (Streptococcus mutans; read-out: MIC): < 64 µg/mL
- MIC (Staphylococcus aureus [6]; read-out: MIC): < 64 µg/mL
- MIC (Candida albicans; read-out: MIC): 64 µg/mL
- MIC (Streptococcus sanguinis): > 64 µg/mL
- HC10 (Erythrocyte): 57.24 µg/mL
- HC50 at 1 h [25]: > 640 µg/mL
- hemolysis at 1 h, 640 ug/ml [26]: 31%
- viability at 48 h, 640 ug/ml [28]: 58.9%
